According to patent US8501793B2, “Blood flow promoters for cauda equina tissues” (Ono Pharmaceutical Co., Ltd., priority 2003, dated 2013):

System: rat
Experiment: measurement of the cauda equina blood flow and the blood pressure in urethane-anesthetized rat
Type: in vivo
Conditions: continuous infusion through caudal vein for 30 minutes, dose not given; for the increase rate of the cauda equina blood flow: observed until 30 minutes after, laser-Doppler flowmetry; for decrease of the blood pressure: systemic blood pressure from left carotid artery
Protocol: The common procedure based on the fundamental biological means was used as all procedures. Furthermore, the measuring method of the present invention was modified to improve the accuracy and/or sensitivity of measurement for evaluating the compound of the present invention. The detailed experimental method was as follows. • (i) The measurement of the cauda equina blood flow and the blood pressure Experiment: 1.5g/kg of urethane was administered intraperitoneally to the rat to be anesthetized, and the catheter, which is for measurement of blood pressure and ventricular rate, was placed in left carotid artery in supine position. The rat was reversed to prone position and the lumbar part was incised in the median line. The laminectomy was given to the fifth lumbar vertebra and the spinal cord (cauda equina) was exposed. The cauda equina blood flow was measured by the laser-Doppler flowmetry (OMEGAFLD FLO-NI and ADVANCE LASER FLOWMETER ALF21N, OMEGA WAVE Inc.) through a noncontact probe (ST-N type, OMEGA WAVE Inc.) and recorded with LINEARCORDER (Graphtech). The systemic blood pressure and the ventricular rate were measured from a left carotid artery with amplifier for the pressure measurement (GOULD) through a pressure transducer and recorded with LINEARCORDER (Graphtech).
After confirming each parameter of blood pressure, ventricular rate and blood flow was stabilized, the test compound was administrated by continuous infusion through the winged needle placed in caudal vein for 30 minutes. It observed until 30 minutes after the administration and the increase rate of the cauda equina blood flow was calculated. The increase rate of the cauda equina blood flow (%)=(B−A)/A×100 • A: the cauda equina blood flow before the administration of the test compound • B: the cauda equina blood flow after the administration of the test compound

SMILES | the increase rate of the cauda equina blood flow | decrease of the blood pressure
CC(O)(C/C=C/[C@H]1CCC(=O)[C@@H]1CCSc1nc(C(=O)O)cs1)CC1CCCCC1 (stereo partly drawn) [compound 53, 2-[(2-{(1R,2R)-2-[(1E)-5-cyclohexyl-4-hydroxy-4-methyl-1-pentenyl]-5-oxocyclopentyl}ethyl)sulfanyl]-1,3-thiazole-4-carboxylic acid] | 31% | 10 mmHg
O=C(O)c1csc(SCCN2C(=O)OC[C@@H]2/C=C/[C@@H](O)C2(CCCCF)CCC2)n1 [compound 8-1, 2-{[2-((4S)-4-{(1E,3R)-3-[1-(4-fluorobutyl)cyclobutyl]-3-hydroxy-1-propenyl}-2-oxo-1,3-oxazolidin-3-yl)ethyl]sulfanyl}-1,3-thiazole-4-carboxylic acid] | 35% | 6 mmHg
